Test results as given in paper PMC8040968, “Identification of small molecule allosteric modulators of 5,10-methylenetetrahydrofolate reductase (MTHFR) by targeting its unique regulatory domain” (Biochimie, 2021).
Where “and” joins values, the source holds several entries; their conditions need not be identical. Equal entries are not always repeated. Where two headings read alike, the source gives them in different places. Each block holds one compound with its values, some of them ahead of it.

What was measured:
hsMTHFRCD-RD [1] = biological target: T1, hsMTHFRCD-RD (Homo sapiens, UniProt P42898); assay: MIDAS protein-metabolite interactomics (equilibrium dialysis FIA-MS), CD-RD construct; assay type: binding; conditions: Fig. 2B
T1 construct: encompassing just the CD and RD (amino acids 38–644; hsMTHFRCD-RD); made in house
Description: (§1) Protein–metabolite interactomics using an updated MIDAS screening platform was performed as reported previously. Briefly, a flow-injection analysis mass-spectrometry (FIA-MS) method utilising a validated library of 400 metabolite standards was combined into four unique and defined screening pools in 150 mM ammonium acetate pH 7.4. For each metabolite pool, 8 μl of hsMTHFRCD-RD (542 μM) or hsMTHFRRD (240 μM) protein was arrayed in triplicate across a SWISSCI 10 MWC 96-well microdialysis plate (protein chambers). To the trans side of each dialysis well, 300 μl of a metabolite pool (50 μM per metabolite) was arrayed in triplicate for each target protein (metabolite chambers). Dialysis plates were placed in the dark at 4 °C on a rotating shaker (150 rev min−1) and incubated for 40 h. Post-dialysis, protein- and metabolite-chamber dialysates were normalized and diluted 1:10 in 80% methanol, incubated for 30 min on ice, and centrifuged at 3200 RCF for 15 min to remove precipitated protein. Metabolite pool analytes were arrayed across a 384-well microvolume plate and placed at 4 °C in a Shimadzu SIL-20ACXR autosampler for FIA-MS metabolomics analysis. 2 μl of each sample was analysed in technical triplicate by FIA-MS on a SCIEX X500R QTOF MS with interspersed injections of blanks.
FIA-MS spectra from MIDAS protein–metabolite interactomics was qualitatively and quantitatively processed in SCIEX OS 1.6 software to determine relative metabolite abundance by integrating the mean area under the extracted-ion chromatogram curve across technical triplicates. Log2 (fold change) for each metabolite was calculated from the relative metabolite abundance in the protein chamber (numerator) and metabolite chamber (denominator) from dialysis triplicates. For each technical triplicate, up to one outlier was removed using a z-score cutoff of five (<0.1% of observations). The corrected technical replicates were collapsed to one mean fold-change summary per protein–metabolite pair. To remove fold-change variation that was not specific to a given metabolite–protein pair, the first three principal components of the total MIDAS dataset were removed (∼75% of observed variance) creating Log2 (corrected fold change). Protein–metabolite z-scores were determined by comparing the target protein–metabolite Log2 (corrected fold change) to a no-signal model for that metabolite using measures of the central tendency (median) and standard deviation (extrapolated from the 25–75% quantiles) which are not biased by the signals in the tails of a metabolite’s fold-change distribution. Z-scores were controlled for false-discovery rate using Storey’s q value (http://github.com/jdstorey/qvalue). Protein–metabolite interactions with p-values < 0.05 and q-values < 0.1 were considered significant.

hsMTHFRRD [2] = biological target: T2, hsMTHFRRD (Homo sapiens, UniProt P42898); assay: Differential scanning fluorimetry binding assay; conditions: up to 250 μM compound, 0.1 mg ml^−1 hsMTHFRRD
T2 construct: encompassing the RD and part of the linker region (amino acids 348–656; hsMTHFRRD); made in house
T2 sequence (P42898 348-656): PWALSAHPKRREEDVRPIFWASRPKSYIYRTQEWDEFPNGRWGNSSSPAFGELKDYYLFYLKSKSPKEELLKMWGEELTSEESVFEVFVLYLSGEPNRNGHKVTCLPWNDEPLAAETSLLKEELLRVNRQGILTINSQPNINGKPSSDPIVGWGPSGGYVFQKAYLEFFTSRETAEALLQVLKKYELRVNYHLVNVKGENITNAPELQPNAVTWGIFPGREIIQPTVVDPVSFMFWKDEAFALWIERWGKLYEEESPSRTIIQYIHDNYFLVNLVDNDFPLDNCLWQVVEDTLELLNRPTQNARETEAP
Description: Differential scanning fluorimetry was used to assay shifts in melting temperature caused by ligand binding in a 96-well PCR plate using an LC480 light cyler (Roche). Each well (20 μl) consisted of hsMTHFRRD protein (0.1 mg ml^−1), SYPRO-Orange (Invitrogen) diluted 1000X, and buffer (10 mM HEPES pH 7.5, 500 mM NaCl) in the presence of 0–250 μM AdoMet, AdoHcy or analogue compounds. Analogue compounds were part of a AdoMet library consisting of 162 synthetic analogues of adenosine scaffolds which were compiled from the SGC’s compound collection.

hsMTHFRCD-RD [3] = biological target: T1, hsMTHFRCD-RD; assay: Surface plasmon resonance, CD-RD construct; assay type: binding; conditions: SPR, read-out: Kd (dissociation constant)
Description: (§2) For determination of the affinity between hsMTHFRCD-RD and (S)-SKI-72, 30 μg of hsMTHFRCD-RD was immobilized onto Sensor Chip CM5 sensor (series S) to a density of 7500 RU via the protein –NH2 groups employing 1-Ethyl-3-(3-dimethylaminoproppyl)carbodiimide crosslinker (EDC) and N-hydroxysuccinimide (NHS) in acetate buffer pH 4.0. For the binding experiment, (S)-SKI-72 was serially diluted (1:1) from 6.25 μM to 0.05 μM in 20 mM HEPES pH 7.5, 150 mM NaCl, 0.5 mM TCEP, 0.05% TWEEN-20, 5% DMSO and subsequently injected at a 30 μL/min flow rate over the sensor. […] For the binding experiment, (S)-SKI-72 was serially diluted from 12.5 μM to 0.012 μM and AdoMet was serially diluted from 25 μM to 0.19 μM and subsequently injected at a 30 μL/min flow rate over the sensor. Data were analysed using the Biacore S200 Evaluation Software.

hsMTHFRRD [4] = biological target: T2, hsMTHFRRD; assay: Surface plasmon resonance, regulatory domain; assay type: binding; conditions: SPR, steady state affinity fit, read-out: Kd (dissociation constant)
Description: as §2

hsMTHFRFL = biological target: T3, hsMTHFRFL (Homo sapiens, UniProt P42898); assay: MTHFR enzyme activity assay (physiological forward assay), purified enzyme; assay type: biochemical; conditions: for Ki: four-parameter curve fit, n = 3
T3 construct: encompassing the full-length (amino acids 1–656; hsMTHFRFL); made in house
Description: (§3) All enzymatic assays were performed using the physiological forward assay described by Suormala et al.. For (S)-SKI-72 inhibition in […] (ATCC: CRL-3216) cell lysates, the assay was performed with the modifications described by Rummel et al. and Burda et al.. For (S)-SKI-73 inhibition of intact HEK293 cells, 300,000 cells/well of a 6-well plate were allowed to settle overnight. The next day, media containing Dulbecco’s Modified Eagle Medium (Gibco) supplemented with 10% fetal bovine serum (Gibco) and 1% antibiotic/antimycotic (Gibco) was exchanged to fresh media of the same composition plus the indicated concentration of (S)-SKI-73. Following incubation for 12 or 48 h, cells were harvested, lysed and assayed as previously described. Assay of hsMTHFRFL was performed as described. Purified AdoMet was used for inhibition. Sinefungin was purchased from Sigma-Aldrich (Cat# S8559). The Ki for each compound was estimated following a plot of inhibitor versus response and a four-parameter curve fit as performed by GraphPad Prism (v8.00).

[5] = biological target: T4, endogenous MTHFR from HEK293 cell lysate (Homo sapiens, UniProt P42898); assay: MTHFR enzyme activity assay in HEK293 cell lysate; assay type: biochemical; conditions: for Ki: n = 3
T4 construct: Remaining activity of endogenous MTHFR from HEK293 cell lysate; host or cells: HEK293
Description: as §3

[6] = design: method as in PMID 31657716; conditions: cited from earlier work
hsMTHFRRD [7] = biological target: T2, hsMTHFRRD; assay: MIDAS protein-metabolite interactomics (equilibrium dialysis FIA-MS), regulatory domain alone; assay type: binding; conditions: Fig. 2C
Description: as §1, with “Post-dialysis, protein- and metabolite-chamber dialysates were normalized and diluted 1:10 in 80% methanol, incubated for 30 min on ice, and centrifuged at 3200 RCF for 15 min to remove precipitated protein. Metabolite pool analytes were arrayed across a 384-well microvolume plate and placed at 4 °C in a Shimadzu SIL-20ACXR autosampler for FIA-MS metabolomics analysis.” left out
FIA-MS spectra from MIDAS protein–metabolite interactomics was qualitatively and quantitatively processed in SCIEX OS 1.6 software to determine relative metabolite abundance by integrating the mean area under the extracted-ion chromatogram curve across technical triplicates. Log2 (fold change) for each metabolite was calculated from the relative metabolite abundance in the protein chamber (numerator) and metabolite chamber (denominator) from dialysis triplicates. […]

T1 sequence (P42898 38-644): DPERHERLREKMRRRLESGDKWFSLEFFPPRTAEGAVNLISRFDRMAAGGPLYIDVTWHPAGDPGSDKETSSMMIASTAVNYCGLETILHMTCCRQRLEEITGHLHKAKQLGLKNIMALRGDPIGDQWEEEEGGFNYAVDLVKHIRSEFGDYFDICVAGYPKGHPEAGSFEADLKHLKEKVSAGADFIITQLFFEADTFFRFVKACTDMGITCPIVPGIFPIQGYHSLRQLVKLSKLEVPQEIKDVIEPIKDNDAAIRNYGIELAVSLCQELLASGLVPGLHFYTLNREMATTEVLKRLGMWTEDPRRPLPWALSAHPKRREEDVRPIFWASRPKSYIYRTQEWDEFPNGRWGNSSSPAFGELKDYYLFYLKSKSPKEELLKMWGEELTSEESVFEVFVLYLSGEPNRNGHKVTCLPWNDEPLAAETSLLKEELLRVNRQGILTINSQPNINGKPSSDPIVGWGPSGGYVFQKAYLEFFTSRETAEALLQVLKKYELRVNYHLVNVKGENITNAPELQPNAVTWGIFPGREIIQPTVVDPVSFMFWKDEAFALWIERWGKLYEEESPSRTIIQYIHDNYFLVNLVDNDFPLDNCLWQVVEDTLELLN
T3 sequence (P42898 whole entry, the tested form may be a part): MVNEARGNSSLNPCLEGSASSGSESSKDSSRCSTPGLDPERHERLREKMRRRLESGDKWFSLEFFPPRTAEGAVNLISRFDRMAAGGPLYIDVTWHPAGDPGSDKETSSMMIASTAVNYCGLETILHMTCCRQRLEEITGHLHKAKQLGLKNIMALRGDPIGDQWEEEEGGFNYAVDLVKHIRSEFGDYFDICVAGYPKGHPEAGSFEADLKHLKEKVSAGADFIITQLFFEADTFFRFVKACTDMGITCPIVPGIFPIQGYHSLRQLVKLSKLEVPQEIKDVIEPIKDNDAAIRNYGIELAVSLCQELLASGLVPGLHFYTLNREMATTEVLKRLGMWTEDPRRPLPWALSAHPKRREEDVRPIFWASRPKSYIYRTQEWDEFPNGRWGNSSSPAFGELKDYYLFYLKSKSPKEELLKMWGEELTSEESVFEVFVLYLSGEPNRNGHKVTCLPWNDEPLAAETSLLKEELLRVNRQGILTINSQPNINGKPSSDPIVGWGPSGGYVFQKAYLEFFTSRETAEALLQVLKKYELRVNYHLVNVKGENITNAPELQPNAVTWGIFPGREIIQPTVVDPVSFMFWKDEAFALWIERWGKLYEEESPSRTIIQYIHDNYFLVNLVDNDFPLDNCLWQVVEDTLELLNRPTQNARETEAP
T4 sequence (P42898 whole entry): as the sequence (P42898 whole entry, the tested form may be a part) above

Compound: Nc1nc2c(c(=O)[nH]1)N(C=O)C(CNc1ccc(C(=O)N[C@@H](CCC(=O)O)C(=O)O)cc1)CN2 (stereo partly shown) [5-FTHF, 5-formyltetrahydrofolate]
MIDAS enrichment or depletion of metabolite (hsMTHFRCD-RD [1]): enriched

Compound: CN1c2c(nc(N)[nH]c2=O)NCC1CNc1ccc(C(=O)N[C@@H](CCC(=O)O)C(=O)O)cc1 (stereo partly shown) [5-MTHF, 5-methyltetrahydrofolate]
MIDAS enrichment or depletion of metabolite (hsMTHFRCD-RD [1]): depleted

Compound: COc1ccc(CCNC(=O)[C@@H](N)CC[C@H](CNCc2ccccc2)C[C@H]2O[C@@H](n3cnc4c(N)ncnc43)[C@H](O)[C@@H]2O)cc1 [(S)-SKI-72]
Tm shift (hsMTHFRRD [2]): approximately 10 °C
Kd (hsMTHFRCD-RD [3]; as printed in Fig. 3A): 600 nM
Kd (hsMTHFRCD-RD [3]; steady state affinity fit): 612 nM and 596 nM
Kd (hsMTHFRRD [4]): 1470 nM and 1170 nM and 1500 nM
residual activity at high concentrations (hsMTHFRFL; purified hsMTHFRFL, even at high concentrations): ~30%
Ki (hsMTHFRFL; purified hsMTHFRFL): 780 ± 50 nM
residual activity at the highest concentrations tested [5]: approximately 50%
Ki [5]: 3000 ± 200 nM
membrane permeability [6]: poor

Compound: Nc1ncnc2c1ncn2[C@@H]1O[C@H](CSCC[C@H](N)C(=O)O)[C@@H](O)[C@H]1O [AdoHcy, S-adenosylhomocysteine]
MIDAS enrichment or depletion of metabolite (hsMTHFRCD-RD [1]): enriched
MIDAS enrichment or depletion of metabolite (hsMTHFRRD [7]): enriched
Tm shift (hsMTHFRRD [2]): ~7 °C

Compound: C[S+](CC[C@H](N)C(=O)[O-])C[C@H]1O[C@@H](n2cnc3c(N)ncnc32)[C@H](O)[C@@H]1O (stereo partly shown) [AdoMet, S-adenosylmethionine]
MIDAS enrichment or depletion of metabolite (hsMTHFRCD-RD [1]): enriched
MIDAS enrichment or depletion of metabolite (hsMTHFRRD [7]): enriched
Tm shift (hsMTHFRRD [2]): approximately 4 °C
Kd (hsMTHFRRD [4]): 4300 nM and 1060 nM
Ki (hsMTHFRFL; purified hsMTHFRFL): 5800 ± 200 nM
Ki [5]: 8200 nM and 6800 nM

Compound: Cc1cc2nc3c(=O)[nH]c(=O)nc-3n(C[C@H](O)[C@H](O)[C@H](O)COP(=O)(O)OP(=O)(O)OC[C@H]3O[C@@H](n4cnc5c(N)ncnc54)[C@H](O)[C@@H]3O)c2cc1C [FAD, flavin adenine dinucleotide]
MIDAS enrichment or depletion of metabolite (hsMTHFRCD-RD [1]): enriched

Next, values leading:

MIDAS enrichment or depletion of metabolite (hsMTHFRCD-RD [1]): depleted
Compound: NC(=O)C1=CN([C@@H]2O[C@H](COP(=O)(O)OP(=O)(O)OC[C@H]3O[C@@H](n4cnc5c(N)ncnc54)[C@H](O)[C@@H]3O)[C@@H](O)[C@H]2O)C=CC1 [NADH]

MIDAS enrichment or depletion of metabolite (hsMTHFRCD-RD [1]): depleted
Compound: NC(=O)C1=CN([C@@H]2O[C@H](COP(=O)(O)OP(=O)(O)OC[C@H]3O[C@@H](n4cnc5c(N)ncnc54)[C@H](OP(=O)(O)O)[C@@H]3O)[C@@H](O)[C@H]2O)C=CC1 [NADPH]

effect on the activity of hsMTHFRFL (hsMTHFRFL; concentrations up to ∼100 μM, above that appeared to inhibit): no effect
Compound: Nc1ncnc2c1ncn2[C@@H]1O[C@H](C[C@@H](N)CC[C@H](N)C(=O)O)[C@@H](O)[C@H]1O [Sinefungin, sinefungin]

MIDAS enrichment or depletion of metabolite (hsMTHFRCD-RD [1]): enriched
Compound: Nc1nc(=O)c2nc(CNc3ccc(C(=O)N[C@@H](CCC(=O)O)C(=O)O)cc3)cnc2[nH]1 [folate]
